# Measurements published in patent US4352818A, “Diazepine derivatives and their use” (Hoffmann-La Roche Inc., priority 1981, dated 1982).
# Legend:
# [1] = tested on: activity of the diazepam in the pentetrazole test; assay: antagonism of diazepam in the pentetrazole test; type: in vivo; conditions: Mus musculus, po; counteracts the diazepam effect in 50% of the animals; diazepam 5 mg/kg i.p. 1 hour before, test compound p.o. 15 minutes before pentetrazole 120 mg/kg i.p.; mice
# Protocol: (§1) This property was used to evaluate the test described hereinafter which permits the determination of compounds which are capable of antagonizing the central properties of 1,4-benzodiazepines which have tranquillizing activity.
# (§2) The antagonistic activity of the compounds investigated, i.e. their ability to counteract the activity of the diazepam in the pentetrazole test, is determined by counting the mice which suffer convulsive attacks in this test.
# In the following Table there are presented the results which have been obtained with representative members of the class of compound defined by formula I in the test previously described. The ED50 is the amount of test compound in mg/kg (p.o.) which in 50% of the animals counteracts the diazepam effect in the above test. Moreover, the Table contains the IC50 value (defined above) for all test compounds listed therein.
# [2] = target: central benzodiazepine receptors; assay: inhibition of the binding of tritiated diazepam at the specific benzodiazepine receptors in the cerebral cortex; conditions: 50 percent inhibition of the specific binding of the tritiated diazepam
# Protocol: The affinity of compounds of formula I to the central benzodiazepine receptors was determined according to the method described in Life Science 20, 2101-2110 (1977) and Science 198, 849-851 (1977). According to this method, the inhibition of the binding of tritiated diazepam at the specific benzodiazepine receptors in the cerebral cortex by the respective test substances is ascertained. The IC50 ("50% inhibiting concentration") is that concentration of the respective test substance which brings about a 50 percent inhibition of the specific binding of the tritiated diazepam at the specific benzodiazepine receptors in the cerebral cortex.
# [3] = tested on: convulsive attacks in the pentetrazole test; assay: pentetrazole test (anticonvulsant activity of diazepam); type: in vivo; conditions: diazepam 5 mg/kg i.p. (supramaximal dosage), more than 900 mice
# Protocol: as §1, §2
SMILES,ED50 [1] [mg/kg],IC50 [2] [nM],protection from convulsive attacks [3]
"O=C1c2c(Cl)cccc2-n2cnc(Cl)c2C2C=CCN12 (racemic) [(a) H Cl Cl --CH=CH--CH2 -- O (R/S), (R,S)-1,8-dichloro-11,13a-dihydro-9H-imidazo[1,5-a]pyrrolo[2,1-c][1,4]benzodiazepin-9-one]",1,3.9,
"O=C1c2c(Cl)cccc2-n2cncc2C2C=CCN12 (racemic) [(a) H Cl H --CH=CH--CH2 -- O (R/S), (R,S)-8-chloro-11,13a-dihydro-9H-imidazo[1,5-a]pyrrolo[2,1-c][1,4]benzodiazepin-9-one]",10.9,240,
"CN1Cc2c(Br)ncn2-c2ccc(F)cc2C1=O [(a) F H Br H --CH3 O --, 3-bromo-8-fluoro-4,5-dihydro-5-methyl-6H-imidazo[1,5-a][1,4]benzodiazepin-6-one]",7.1,51,
"CN1Cc2c(Cl)ncn2-c2ccc(F)cc2C1=O [(a) F H Cl H --CH3 O --, 3-chloro-8-fluoro-4,5-dihydro-5-methyl-6H-imidazo[1,5-a][1,4]benzodiazepin-6-one]",2.3,28,
"COCc1ncn2c1CN(C)C(=O)c1c(Cl)cccc1-2 [(a) H Cl --CH2 OCH3 H --CH3 O --, 7-chloro-4,5-dihydro-3-(methoxymethyl)-5-methyl-6H-imidazo[1,5-a][1,4]benzodiazepin-6-one]",1.4,30,
"CN1Cc2c(Cl)ncn2-c2cccc(Cl)c2C1=O [(a) H Cl Cl H --CH3 O --, 3,7-dichloro-4,5-dihydro-5-methyl-6H-imidazo[1,5-a][1,4]benzodiazepin-6-one]",0.9,3.6,
"CN1Cc2cncn2-c2cccc(Cl)c2C1=O [(a) H Cl H H --CH3 O --, 7-chloro-4,5-dihydro-5-methyl-6H-imidazo[1,5-a][1,4]benzodiazepin-6-one]",6.2,110,
"COCc1ncn2c1CN(C)C(=O)c1ccccc1-2 [(a) H H --CH2 OCH3 H --CH3 O --, 4,5-dihydro-3-(methoxymethyl)-5-methyl-6H-imidazo[1,5-a][1,4]benzodiazepin-6-one]",8.9,380,
"CN1Cc2c([N+](=O)[O-])ncn2-c2ccccc2C1=O [(a) H H --NO2 H --CH3 O --, 4,5-dihydro-5-methyl-3-nitro-6H-imidazo[1,5-a][1,4]benzodiazepin-6-one]",4,72,
"O=C1c2ccccc2-n2cnc(Br)c2[C@@H]2CCCN12 [(a) H H Br --(CH2)3 -- O (S), (S)-1-bromo-11,12,13,13a-tetrahydro-9H-imidazo[1,5-a]pyrrolo[2,1-c][1,4]benzodiazepin-9-one]",9.9,48,
"CN1Cc2c(Br)ncn2-c2ccccc2C1=O [(a) H H Br H --CH3 O --, 3-bromo-4,5-dihydro-5-methyl-6H-imidazo[1,5-a][1,4]benzodiazepin-6-one]",4.5,34,
"O=C1c2ccccc2-n2cnc(Cl)c2[C@@H]2CCCN12 [(a) H H Cl --(CH2)3 -- O (S), (S)-1-chloro-11,12,13,13a-tetrahydro-9H-imidazo[1,5-a]pyrrolo[2,1-c][1,4]benzodiazepin-9-one]",8,120,
"CN1Cc2c(Cl)ncn2-c2ccccc2C1=O [(a) H H Cl H --CH3 O --, 3-chloro-4,5-dihydro-5-methyl-6H-imidazo[1,5-a][1,4]benzodiazepin-6-one]",1.7,100,
"CN1Cc2c(Cl)ncn2-c2ccccc2C1=S [(a) H H Cl H --CH3 S --, 3-chloro-4,5-dihydro-5-methyl-6H-imidazo[1,5-a][1,4]benzodiazepine-6-thione]",10.5,250,
"CN1Cc2c(I)ncn2-c2ccccc2C1=O [(a) H H J H --CH3 O --, 4,5-dihydro-3-iodo-5-methyl-6H-imidazo[1,5-a][1,4]benzodiazepin-6-one]",2.5,23,
"O=C1c2sccc2-n2cnc(Cl)c2[C@@H]2CCCN12 [(b) -- -- Cl --(CH2)3 -- O (S), (S)-1-Chloro-10,11,12,12a-tetrahydro-8H-imidazo[5,1-c]pyrrolo[1,2-a]thieno[3,2-e][1,4]diazepin-8-one]",0.83,17,
CN1C(=O)CN=C(c2ccccc2)c2cc(Cl)ccc21 [diazepam],,,protects all experimental animals from convulsive attacks
